The text below walks through data of US9708311B2, “Benzimidazole derivatives as EP4 antagonists” (BAYER PHARMA AKTIENGESELLSCHAFT, priority 2012, dated 2017).

The target in the assay is human EP4 receptor (Homo sapiens (Human), UniProt P35408). Nature of the assay: Test for antagonism of the human EP4 receptor signal (cAMP HTRF). The format is cell-based. As to conditions: cells expressing hEP4, PGE2 at EC80 (0.4 nM), cAMP TR-FRET; read-out: Antagonism hEP4 IC50. The gist of the method: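 Antagonism of PGE2-stimulated cAMP formation in hEP4-R cells with IBMX present. After lysis, cAMP measured by competitive TR-FRET (Eu cryptate anti-cAMP antibody vs cAMP-d2), 20 min at room temperature. Read-out is the 665/620 nm emission ratio; antagonism appears as restored FRET signal.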
human EP4 receptor, sequence (P35408 whole entry): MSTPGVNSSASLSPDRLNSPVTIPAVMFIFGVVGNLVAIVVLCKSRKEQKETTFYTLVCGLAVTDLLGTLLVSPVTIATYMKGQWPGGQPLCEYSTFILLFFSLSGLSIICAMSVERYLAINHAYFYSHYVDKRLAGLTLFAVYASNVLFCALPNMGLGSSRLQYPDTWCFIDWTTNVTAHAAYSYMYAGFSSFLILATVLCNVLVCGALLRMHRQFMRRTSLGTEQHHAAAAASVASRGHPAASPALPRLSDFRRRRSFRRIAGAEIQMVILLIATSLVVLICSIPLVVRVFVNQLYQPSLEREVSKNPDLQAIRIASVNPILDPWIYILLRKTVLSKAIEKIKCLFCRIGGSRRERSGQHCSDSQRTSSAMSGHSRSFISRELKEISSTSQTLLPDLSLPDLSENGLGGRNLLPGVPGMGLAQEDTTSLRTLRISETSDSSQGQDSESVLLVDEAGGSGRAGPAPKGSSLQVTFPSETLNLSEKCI
On to `CCn1c2ccc(C)cc2c2cc(-c3nc4c(C)c(C(=O)O)ccc4n3CCOC)ccc21` [Example 141, 2-(9-Ethyl-6-methyl-9H-carbazol-3-yl)-1-(2-methoxyethyl)-4-methyl-1H-benzimidazole-5-carboxylic acid], for which the IC50 was 15.3 nM.

Take `CCn1c2ccccc2c2cc(-c3nc4cc(C(=O)O)ccc4n3CCC3CC3)ccc21` [Example 117, 1-(2-Cyclopropylethyl)-2-(9-ethyl-9H-carbazol-3-yl)-1H-benzimidazole-5-carboxylic acid]: the IC50 came to 22.1 nM.

Consider `C#CCn1c2ccccc2c2cc(-c3nc4cc(C(=O)O)ccc4n3CCOC)ccc21` [Example 119, 1-(2-Methoxyethyl)-2-[9-(prop-2-yn-1-yl)-9H-carbazol-3-yl]-1H-benzimidazole-5-carboxylic acid], for which the IC50 was 43.7 nM.

As for `CCn1c2ccccc2c2cc(-c3nc4cc(C(=O)N5CCCC5)ccc4n3CC3CC3)ccc21` [Example 22, [1-(Cyclopropylmethyl)-2-(9-ethyl-9H-carbazol-3-yl)-1H-benzimidazol-5-yl](pyrrolidin-1-yl)methanone], the IC50 was 65.7 nM.

Regarding `CCn1c2ccccc2c2cc(-c3nc4cc(C(=O)NS(=O)(=O)c5ccc(C)cc5)ccc4n3CCOC)ccc21` [Example 48, 2-(9-Ethyl-9H-carbazol-3-yl)-1-(2-methoxyethyl)-N-[(4-methylphenyl)sulphonyl]-1H-benzimidazole-5-carboxamide], the IC50 was 99.5 nM.

Take `CCn1c2ccccc2c2cc(-c3nc4cc(C(=O)NS(=O)(=O)CC(C)(C)C)ccc4n3CCOC)ccc21` [Example 66, N-[(2,2-Dimethylpropyl)sulphonyl]-2-(9-ethyl-9H-carbazol-3-yl)-1-(2-methoxyethyl)-1H-benzimidazole-5-carboxamide]: the IC50 is 16.1 nM.

For `CCn1c2ccccc2c2cc(-c3nc4cc(C(=O)N5CC(O)C5)ccc4n3CC3CC3)ccc21` [Example 23, [1-(Cyclopropylmethyl)-2-(9-ethyl-9H-carbazol-3-yl)-1H-benzimidazol-5-yl](3-hydroxyazetidin-1-yl)methanone], the IC50 is 143 nM.

For the molecule `CCn1c2ccccc2c2cc(-c3nc4c(Cl)c(C(=O)O)ccc4n3CC3CC3)ccc21` [Example 8, 4-Chloro-1-(cyclopropylmethyl)-2-(9-ethyl-9H-carbazol-3-yl)-1H-benzimidazole-5-carboxylic acid], the IC50 worked out at 19.7 nM.

Take `CCn1c2ccccc2c2cc(-c3nc4c(C)c(C(=O)O)ccc4n3CC3CC3)ccc21` [Example 9, 1-(Cyclopropylmethyl)-2-(9-ethyl-9H-carbazol-3-yl)-4-methyl-1H-benzimidazole-5-carboxylic acid]: the IC50 stood at 71.2 nM.

On to `CCn1c2ccc(-c3nc4cc(C(=O)O)ccc4n3CCOC)cc2c2cccc(F)c21` [Example 12, 2-(9-Ethyl-8-fluoro-9H-carbazol-3-yl)-1-(2-methoxyethyl)-1H-benzimidazole-5-carboxylic acid], for which the IC50 came to 10.2 nM.

`C=CCn1c(-c2ccc3c(c2)c2ccccc2n3CC)nc2cc(C(=O)NC)ccc21` [Example 88, 1-Allyl-2-(9-ethyl-9H-carbazol-3-yl)-N-methyl-1H-benzimidazole-5-carboxamide]: the IC50 was determined as 2100 nM.

As for `CCn1c2ccc(Cl)cc2c2cc(-c3nc4c(C)c(C(=O)O)ccc4n3CCOC)ccc21` [Example 142, 2-(6-Chloro-9-ethyl-9H-carbazol-3-yl)-1-(2-methoxyethyl)-4-methyl-1H-benzimidazole-5-carboxylic acid], the IC50 was found to be 4.16 nM.

As to `CCn1c2ccccc2c2cc(-c3nc4c(F)c(C(=O)O)ccc4n3CCOC)ccc21` [Example 114, 2-(9-Ethyl-9H-carbazol-3-yl)-4-fluoro-1-(2-methoxyethyl)-1H-benzimidazole-5-carboxylic acid], the IC50 was 6.42 nM.

`CCn1c2ccccc2c2cc(-c3nc4cc(C(=O)NS(=O)(=O)CCc5cccc(Cl)c5)ccc4n3CCOC)ccc21` [Example 56, N-{[2-(3-Chlorophenyl)ethyl]sulphonyl}-2-(9-ethyl-9H-carbazol-3-yl)-1-(2-methoxyethyl)-1H-benzimidazole-5-carboxamide]: the IC50 came out at 238 nM.

Take `CCn1c2ccccc2c2cc(-c3nc4cc(C(=O)NS(=O)(=O)Cc5ccccc5OC(F)(F)F)ccc4n3CCOC)ccc21` [Example 65, 2-(9-Ethyl-9H-carbazol-3-yl)-1-(2-methoxyethyl)-N-{[2-(trifluoromethoxy)benzyl]-sulphonyl}-1H-benzimidazole-5-carboxamide]: the IC50 amounted to 133 nM.

As to `CCn1c2ccccc2c2cc(-c3nc4cc(C(=O)O)ccc4n3CCN(C)C)ccc21` [Example 72, 1-[2-(Dimethylamino)ethyl]-2-(9-ethyl-9H-carbazol-3-yl)-1H-benzimidazole-5-carboxylic acid], the IC50 was determined as 82.5 nM.

Regarding `CCn1c2ccccc2c2cc(-c3nc4cc(C(=O)O)c(OC)cc4n3CC3CC3)ccc21` [Example 102, 1-(Cyclopropylmethyl)-2-(9-ethyl-9H-carbazol-3-yl)-6-methoxy-1H-benzimidazole-5-carboxylic acid], the IC50 came to 2830 nM.

Consider `CCn1c2ccc(OC)cc2c2cc(-c3nc4cc(C(=O)O)ccc4n3CC3CC3)ccc21` [Example 43, 1-(Cyclopropylmethyl)-2-(9-ethyl-6-methoxy-9H-carbazol-3-yl)-1H-benzimidazole-5-carboxylic acid], for which the IC50 came out at 54.6 nM.

As to `COCCn1c2ccccc2c2cc(-c3nc4cc(C(=O)O)ccc4n3CC3CC3)ccc21` [Example 13, 1-(Cyclopropylmethyl)-2-[9-(2-methoxyethyl)-9H-carbazol-3-yl]-1H-benzimidazole-5-carboxylic acid], the half-maximal inhibitory concentration (IC50) is 18 nM.

Turning to `CCn1c2ccccc2c2cc(-c3nc4cc(C(=O)O)ccc4n3CCN3CCCC3)ccc21` [Example 38, 2-(9-Ethyl-9H-carbazol-3-yl)-1-[2-(pyrrolidin-1-yl)ethyl]-1H-benzimidazole-5-carboxylic acid], the IC50 was found to be 742 nM.

As to `CCn1c2ccccc2c2cc(-c3nc4cc(C(=O)NS(=O)(=O)c5ccc6ccccc6c5)ccc4n3CCOC)ccc21` [Example 51, 2-(9-Ethyl-9H-carbazol-3-yl)-1-(2-methoxyethyl)-N-(2-naphthylsulphonyl)-1H-benzimidazole-5-carboxamide], the IC50 turned out to be 95.5 nM.

For `CCn1c2ccccc2c2cc(-c3nc4cc(C(N)=O)ccc4n3CC3CC3)ccc21` [Example 26, 1-(Cyclopropylmethyl)-2-(9-ethyl-9H-carbazol-3-yl)-1H-benzimidazole-5-carboxamide], the IC50 stood at 176 nM.

`Cn1c2ccccc2c2cc(-c3nc4cc(C(=O)O)ccc4n3CC3CC3)ccc21` [Example 34, 1-(Cyclopropylmethyl)-2-(9-methyl-9H-carbazol-3-yl)-1H-benzimidazole-5-carboxylic acid]: the IC50 was 39.4 nM.

As for `CCn1c2ccccc2c2cc(-c3nc4cc(C(=O)NCCOC)ccc4n3CCOC)ccc21` [Example 31, 2-(9-Ethyl-9H-carbazol-3-yl)-N,1-bis(2-methoxyethyl)-1H-benzimidazole-5-carboxamide], the IC50 came to 42.8 nM.

With `CCn1c2ccccc2c2cc(-c3nc4cc(C(=O)NS(=O)(=O)c5ccc(C)cn5)ccc4n3CCOC)ccc21` [Example 63, 2-(9-Ethyl-9H-carbazol-3-yl)-1-(2-methoxyethyl)-N-[(5-methylpyridin-2-yl)sulphonyl]-1H-benzimidazole-5-carboxamide], the IC50 was 117 nM.

Turning to `CCOC(=O)c1ccc2c(c1)nc(-c1ccc3c(c1)c1ccccc1n3CC)n2C(C)C` [Example 92, Ethyl 2-(9-ethyl-9H-carbazol-3-yl)-1-isopropyl-1H-benzimidazole-5-carboxylate], the IC50 turned out to be 8000 nM.

Consider `C=CCn1c(-c2ccc3c(c2)c2ccccc2n3CC)nc2cc(C(=O)OC)ccc21` [Example 1, Methyl 1-allyl-2-(9-ethyl-9H-carbazol-3-yl)-1H-benzimidazole-5-carboxylate], for which the IC50 was determined as 3100 nM.

As to `CCn1c2ccccc2c2cc(-c3nc4cc(C(=O)O)ccc4n3CCOC(F)(F)F)ccc21` [Example 130, 2-(9-Ethyl-9H-carbazol-3-yl)-1-[2-(trifluoromethoxy)ethyl]-1H-benzimidazole-5-carboxylic acid], the IC50 was 14.3 nM.

With `CCn1c2ccccc2c2cc(-c3nc4c(C)c(C(=O)O)ccc4n3CCOC)ccc21` [Example 105, 2-(9-Ethyl-9H-carbazol-3-yl)-1-(2-methoxyethyl)-4-methyl-1H-benzimidazole-5-carboxylic acid], the IC50 came to 64.3 nM.

With `CCn1c2ccccc2c2cc(-c3nc4cc(C(=O)NCCOC)ccc4n3CC3CC3)ccc21` [Example 21, 1-(Cyclopropylmethyl)-2-(9-ethyl-9H-carbazol-3-yl)-N-(2-methoxyethyl)-1H-benzimidazole-5-carboxamide], the IC50 stood at 103 nM.

As to `C=CCn1c2ccccc2c2cc(-c3nc4cc(C(=O)O)ccc4n3CC3CC3)ccc21` [Example 33, 2-(9-Allyl-9H-carbazol-3-yl)-1-(cyclopropylmethyl)-1H-benzimidazole-5-carboxylic acid], the IC50 worked out at 28.7 nM.

`CCn1c2ccccc2c2cc(-c3nc4cc(C(=O)NC)ccc4n3C)ccc21` [Example 90, 2-(9-Ethyl-9H-carbazol-3-yl)-N,1-dimethyl-1H-benzimidazole-5-carboxamide]: the IC50 was 2860 nM.

Regarding `CCn1c2ccccc2c2cc(-c3nc4cc(C(=O)O)c(OC)cc4n3CCOC)ccc21` [Example 103, 2-(9-Ethyl-9H-carbazol-3-yl)-6-methoxy-1-(2-methoxyethyl)-1H-benzimidazole-5-carboxylic acid], the IC50 amounted to 3110 nM.

For `CCn1c2ccccc2c2cc(-c3nc4cc(C(=O)NS(=O)(=O)C5CC5)ccc4n3CCOC)ccc21` [Example 16, N-(Cyclopropylsulphonyl)-2-(9-ethyl-9H-carbazol-3-yl)-1-(2-methoxyethyl)-1H-benzimidazole-5-carboxamide], the IC50 was 28.6 nM.
